Measured values: US5932742A, “Arylsulfonylimidazolone derivatives as an antitumor agent” (priority 1996, dated 1999)
≈ marks a conversion by molar mass, not a printed value. Where two headings read alike, the source gives them in different places.

Assays:
Assay type in all cases: cell-based
[1] = tested on: A549 (ATCC CCL 185): human lung carcinoma; test: In vitro antitumor activity, MTT assay, A549; conditions: Homo sapiens, A549, 48 h
Method: (§1) In vitro antitumor activity against human tumor cell lines
(§2) In vitro antitumor activity of the compounds according to the present invention was determined by MTT assay method against the following human tumor cell lines:
A549 (ATCC CCL 185): human lung carcinoma
(§3) In this test, the known antineoplastic compounds, Doxorubicin and Sulofenur, were used as the comparative agents.
(§4) Each of the tumor cells was cultured in RPMI 1640 media containing 10% fetal bovine serum, 100 IU/ml penicillin and 100 μg/ml streptomycin, and then periodically subcultured once or twice per week in trypsin-EDTA solution containing 0.05% trypsin and 0.53mM EDTA.4Na. The human tumor cell line thus obtained (10,000cells/100 μl) was plated on 96-well microplate and then cultured for 24 hrs at 37° C. in a 5% CO2 incubator. Test compound was dissolved in DMSO, sterilized with 0.22 μm PVDF filter, and then serially 5-fold diluted from 40 μg/ml to 0.00256μg/ml. 100 μl of the sample solution thus prepared and RPMI 1640 medium only (control group) were added to 96-well microplate containing the human tumor cell, respectively. The final concentration of the test compound was in the range from 20 μg/ml to 0.00128 μg/ml and the concentration of DMSO was below 0.5%. The cells were cultured for 48 hrs at 37° C. in a 5% CO2 incubator. MTT(3-(4,5-Dimethylthiazole-2-yl)-e,5-diphenyltetrazoliumbromide) was dissolved in physiological saline in a concentration of 2 mg/ml and the resulting solution was filtered through 0.22 μm PTFE filter. 25 μl of MTT solution thus prepared was added to each well of 96-well microplate and incubated for additional 4 hrs at 37° C. in a 5% CO2 incubator. Then, the content of microplate was centrifuged at 1000 rpm for 10 min, and supernatant was removed by flicking. The formazan formed from MTT by mitochondrial succinate dehydrogenase was dissolved in 100 μl of DMSO. The absorbance of each well was measured at 540nm by micro ELISA reader and the cytotoxicity was calculated by dividing the absorbance of test group by the absorbance of control group. After the calculated cytotoxicity (%) was plotted, the concentration of 50% tumor growth inhibition concentration (IC50) was estimated by Linear-Regression method.

[2] = tested on: Colo205 (ATCC CCL 222): human colon adenocarcinoma; test: In vitro antitumor activity, MTT assay, Colo205; conditions: Homo sapiens
Method: as §1, §2
Colo205 (ATCC CCL 222): human colon adenocarcinoma
as §3, §4

[3] = tested on: SK-OV-3 (ATCC HTB 77): human ovarian adenocarcinoma; test: In vitro antitumor activity, MTT assay, SK-OV-3; conditions: Homo sapiens
Method: as §1, §2
SK-OV-3 (ATCC HTB 77): human ovarian adenocarcinoma
as §3, §4

[4] = tested on: K562 (ATCC CCL 243): human chronic myelogenous leukemia; test: In vitro antitumor activity, MTT assay, K562; conditions: Homo sapiens, K562, 48 h
Method: as §1, §2
K562 (ATCC CCL 243): human chronic myelogenous leukemia
as §3, §4

[5] = COLO 205, Table 1, 48 hrs, read-out: IC50 (Colo205)

Row | IC50 ([1]; Table 4) | IC50 ([3]; SK-OV-3, Table 4, 48 hrs) | IC50 ([4]; Table 4, read-out: IC50 (K562)) | SMILES | further results
1 | – | – | – | CCCNC(=O)N1CCc2cc(S(=O)(=O)n3cc(-c4ccccc4)[nH]c3=O)ccc21 [Example 4, 4-phenyl-1-(N-propylcarbamoylindoline-5-sulfonyl)-2-imidazolone] | IC50 ([1]; Table 1): 0.052 µg/mL (≈ 0.122 µM); IC50 [2, 5]: < 0.00128 µg/mL; IC50 ([3]; SK-OV-3, Table 1, 48 hrs): < 0.00128 µg/mL
2 | – | – | – | CC(C)NC(=O)N1CCc2cc(S(=O)(=O)n3cc(-c4ccccc4)[nH]c3=O)ccc21 [Example 6, 4-phenyl-1-(N-isopropylcarbamoylindoline-5-sulfonyl)-2-imidazolone] | IC50 ([1]; Table 1): < 0.00128 µg/mL; IC50 [2, 5]: < 0.00128 µg/mL; IC50 ([3]; SK-OV-3, Table 1, 48 hrs): < 0.00128 µg/mL
3 | – | – | – | C=CCNC(=O)N1CCc2cc(S(=O)(=O)N3CC(c4ccccc4)NC3=O)ccc21 (stereo not drawn) [Example 32, 4-phenyl-1-(N-allylcarbamoylindoline-5-sulfonyl)-4,5-dihydro-2-imidazolone] | IC50 ([1]; Table 3): 0.042 µg/mL (≈ 0.0985 µM); IC50 ([2]; COLO 205, Table 3, 48 hrs, read-out: IC50 (Col205)): 7.1 µg/mL (≈ 16.6 µM); IC50 ([3]; SK-OV-3, Table 3, 48 hrs): 0.685 µg/mL (≈ 1.61 µM)
4 | – | – | – | CCCNC(=S)N1CCc2cc(S(=O)(=O)N3CC(c4ccccc4)NC3=O)ccc21 (stereo not drawn) [Example 40, 4-phenyl-1-(N-propylthiocarbamoylindoline-5-sulfonyl)-4,5-dihydro-2-imidazolone] | IC50 ([1]; Table 3): 0.245 µg/mL (≈ 0.551 µM); IC50 ([3]; SK-OV-3, Table 3, 48 hrs): 3.66 µg/mL (≈ 8.24 µM); IC50 ([4]; Table 3, read-out: IC50 (K562)): 0.337 µg/mL (≈ 0.758 µM)
5 | – | – | – | COc1ccc(NC(=S)N2CCc3cc(S(=O)(=O)N4CC(c5ccccc5)NC4=O)ccc32)cc1 (stereo not drawn) [Example 43, 4-phenyl-1-[N-(4-methoxyphenyl)thiocarbamoylindoline-5-sulfonyl]-4,5-dihydro-2-imidazolone] | IC50 ([1]; Table 3): 1.27 µg/mL (≈ 2.49 µM); IC50 ([3]; SK-OV-3, Table 3, 48 hrs): 1.03 µg/mL (≈ 2.03 µM); IC50 ([4]; Table 3, read-out: IC50 (K562)): 1.28 µg/mL (≈ 2.52 µM)
6 | 0.196 µg/mL (≈ 0.438 µM) | 0.26 µg/mL (≈ 0.581 µM) | 1.84 µg/mL (≈ 4.12 µM) | O=C(c1ccccc1)N1CCc2cc(S(=O)(=O)N3CC(c4ccccc4)NC3=O)ccc21 (stereo not drawn) [Example 47, 4-phenyl-1-(N-benzoylindoline-5-sulfonyl)-4,5-dihydro-2-imidazolone] | –
7 | 1.74 µg/mL (≈ 3.76 µM) | > 20 µg/mL | 2.4 µg/mL (≈ 5.2 µM) | Cc1ccc(C(=O)N2CCc3cc(S(=O)(=O)N4CC(c5ccccc5)NC4=O)ccc32)cc1 (stereo not drawn) [Example 48, 4-phenyl-1-[N-(4-methylbenzoyl)indoline-5-sulfonyl]-4,5-dihydro-2-imidazolone] | –
8 | 0.638 µg/mL (≈ 1.38 µM) | 0.591 µg/mL (≈ 1.28 µM) | 5.71 µg/mL (≈ 12.3 µM) | O=C(c1ccccc1O)N1CCc2cc(S(=O)(=O)N3CC(c4ccccc4)NC3=O)ccc21 (stereo not drawn) [Example 49, 4-phenyl-1-[N-(2-hydroxybenzoyl)indoline-5-sulfonyl]-4,5-dihydro-2-imidazolone] | –
9 | 1.56 µg/mL (≈ 3.28 µM) | 1.37 µg/mL (≈ 2.87 µM) | 2.19 µg/mL (≈ 4.58 µM) | COc1ccc(C(=O)N2CCc3cc(S(=O)(=O)N4CC(c5ccccc5)NC4=O)ccc32)cc1 (stereo not drawn) [Example 50, 4-phenyl-1-[N-(4-methoxybenzoyl)indoline-5-sulfonyl]-4,5-dihydro-2-imidazolone] | –
10 | 1.65 µg/mL (≈ 3.25 µM) | 12.1 µg/mL (≈ 23.9 µM) | 0.218 µg/mL (≈ 0.429 µM) | COc1ccc(C(=O)N2CCc3cc(S(=O)(=O)N4CC(c5ccccc5)NC4=O)ccc32)cc1OC (stereo not drawn) [Example 51, 4-phenyl-1-[N-(3,4-dimethoxybenzoyl)indoline-5-sulfonyl]-4,5-dihydro-2-imidazolone] | –
11 | 0.101 µg/mL (≈ 0.205 µM) | 2.22 µg/mL (≈ 4.51 µM) | – | CCOc1ccc(C(=O)N2CCc3cc(S(=O)(=O)N4CC(c5ccccc5)NC4=O)ccc32)cc1 (stereo not drawn) [Example 52, 4-phenyl-1-[N-(4-ethoxybenzoyl)indoline-5-sulfonyl]-4,5-dihydro-2-imidazolone] | –
12 | 2.74 µg/mL (≈ 5.15 µM) | 11.3 µg/mL (≈ 21.4 µM) | – | O=C(c1cccc(OC(F)(F)F)c1)N1CCc2cc(S(=O)(=O)N3CC(c4ccccc4)NC3=O)ccc21 (stereo not drawn) [Example 63, 4-phenyl-1-[N-(3-trifluoromethoxybenzoyl)indoline-5-sulfonyl]-4,5-dihydro-2-imidazolone] | –
13 | 0.695 µg/mL (≈ 1.31 µM) | 2.96 µg/mL (≈ 5.56 µM) | – | O=C(c1ccc(OC(F)(F)F)cc1)N1CCc2cc(S(=O)(=O)N3CC(c4ccccc4)NC3=O)ccc21 (stereo not drawn) [Example 64, 4-phenyl-1-[N-(4-trifluoromethoxybenzoyl)indoline-5-sulfonyl]-4,5-dihydro-2-imidazolone] | –
